This is an account of results in US10125358B2, “Methods and compounds for increasing threonyl-tRNA synthetase activity” (UNIVERSITY OF VERMONT AND STATE AGRICULTURAL COLLEGE, priority 2012, dated 2018).

“Also recorded” adds a separate entry of the source.

Data set [1] has as its system HUVECs. In words: Western blot for unfolded protein response (phospho-eIF2α) and apoptosis (cleaved caspase-3). Conditions: HUVECs in full serum media. The class given is cell-based, human. As for the experimental part:
After treatments, cells were harvested into sample buffer containing: 0.2 M Tris-HCL, 4% SDS, 4% β-mercaptoethanol, 40% glycerol, 4 μM pyronin Y. Extracts were sheared through a 24-gauge syringe. Samples were separated by 10% SDS-PAGE and transferred to nitrocellulose membrane and probed with specific antibody as described (Lounsbury, Beddow et al. 1994). Primary antibodies are as follows: Rabbit monoclonal anti-P-eIF2α (1:1000; Cell Signaling Technology, Danvers, Mass.), rabbit monoclonal anti-Cleaved Caspase-3 (1:1000; Cell Signaling Technology, Danvers, Mass.), rabbit polyclonal anti-TARS (1:500; Santa Cruz Biotechnology, Santa Cruz, Calif.). Loading control antibodies were rabbit monoclonal anti-β-actin and anti-β-tubulin (1:1000; Cell Signaling Technology, Danvers, Mass.). Secondary antibodies were HRP-goat-anti-mouse and HRP-goat-anti-rabbit (1:5,000; Jackson Laboratories, Bar Harbor, Me.).
In general terms: A western blot detects proteins with antibodies after separation by electrophoresis.

For data set [2], the system named is HUVECs. In words: Cell viability by Trypan Blue exclusion. The settings on record: concentrations below 100 nM. The class given is cell-based, human. As for the experimental part: Cell viability was measured by counting cells in a hemacytometer with Trypan Blue exclusion (Sigma-Aldrich, St. Louis, Mo.) according to manufacturer's instructions. Measurements were normalized to untreated cells.

A further data set deals with HUVEC. Nature of the data set: Nascent protein synthesis assay (Click-iT metabolic labeling). The class given is cell-based, human. Conditions: HUVECs; concentrations below 100 nM. As for the experimental part:
Nascent Protein Synthesis Assay—
Nascent protein synthesis was measured using Invitrogen Click-iT® metabolic labeling reagents [Dieterich, D. C., et al., Nat Protoc 2, 532-40 (2007)]. HUVEC cultures were pre-incubated in methionine-free Dulbecco's Modified Eagle Medium (D-MEM) high glucose (Invitrogen, Life Technologies, Grand Island, N.Y.) supplemented with 10% dialyzed fetal bovine serum (Invitrogen) containing the control or test compounds. Cycloheximide (50 μM) was used as a positive control. After 45 minutes, 25 μM Click-iT® AHA (L-azidohomoalanine) (Invitrogen) was added and cultures were incubated for 3 h. Cells were lysed with 1% SDS in 50 mM Tris-HCl with protease and phosphatase inhibitors: 1 mM […], 20 […], and 4 […]. Extracts were sonicated and protein concentration was determined by Bradford assay. Protein samples were labeled with biotin alkyne (PEG4 carboxamide-propargyl biotin) (Invitrogen) using the Click-iT® Protein Reaction Buffer Kit (Invitrogen) according to manufacturer's instructions. Equal concentrations of protein were run on a 10% SDS-PAGE and transferred to nitrocellulose membrane, incubated with streptavidin-HRP reagent (Pierce Thermo Scientific, Rockford, Ill.) followed by reaction with ECL reagent (Pierce) and exposed on film.

The target in the next data set is T1, TARS (Homo sapiens, UniProt P26639).
T1 sequence (P26639 1-723): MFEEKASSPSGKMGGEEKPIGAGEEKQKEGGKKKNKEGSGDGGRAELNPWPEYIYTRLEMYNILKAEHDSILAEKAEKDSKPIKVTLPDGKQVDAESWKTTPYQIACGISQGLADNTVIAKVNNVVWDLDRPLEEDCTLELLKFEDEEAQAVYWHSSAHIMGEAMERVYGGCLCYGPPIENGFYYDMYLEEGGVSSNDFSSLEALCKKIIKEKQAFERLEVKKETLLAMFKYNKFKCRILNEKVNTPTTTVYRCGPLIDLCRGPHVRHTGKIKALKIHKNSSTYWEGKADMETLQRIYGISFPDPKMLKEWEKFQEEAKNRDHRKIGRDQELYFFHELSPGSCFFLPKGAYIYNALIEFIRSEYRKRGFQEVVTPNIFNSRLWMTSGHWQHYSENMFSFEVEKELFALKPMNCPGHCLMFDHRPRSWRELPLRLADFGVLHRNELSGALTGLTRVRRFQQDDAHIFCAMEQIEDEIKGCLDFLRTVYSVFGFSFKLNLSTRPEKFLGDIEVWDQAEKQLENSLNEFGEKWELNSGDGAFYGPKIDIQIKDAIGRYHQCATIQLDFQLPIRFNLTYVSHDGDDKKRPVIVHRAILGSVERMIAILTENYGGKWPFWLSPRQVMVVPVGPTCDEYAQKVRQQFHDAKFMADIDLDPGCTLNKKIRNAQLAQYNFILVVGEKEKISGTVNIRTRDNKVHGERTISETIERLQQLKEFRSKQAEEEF
Conditions: calculated; see Williams, Mirando et al. 2013; cited from earlier work.

Data set [3] relates to HUVECs. Nature of the data set: VEGF secretion into culture media (ELISA). The settings on record: purified recombinant TARS added to HUVEC media for 24 h. The class given is cell-based, human. As for the experimental part:
ELISA and Lactate Dehydrogenase Assays—
Culture media supernatants were tested for levels of secreted TARS protein using the Threonyl tRNA Synthetase (TARS) ELISA Kit (USCN Life Science, Wuhan, Hubei, PRC) according to manufacturer's instructions. Cell membrane integrity was confirmed using the lactate dehydrogenase assay CytoTox-ONE™ Homogeneous Membrane Integrity Assay (Promega, Madison, Wis.) according to manufacturer's instructions and reported as percent cytotoxicity relative to a lysis control. Levels of secreted VEGF were measured using the Human VEGF ELISA kit (Thermo Scientific) per manufacturer's instructions.
A general note: In an ELISA, binding on a coated surface is turned into a signal by an enzyme label.

In a further data set the test system is tRNAThr. Nature of the data set: Steady state aminoacylation assay. The settings on record: purified recombinant protein. The class given is biochemical, E. coli or human. As for the experimental part: Steady State Aminoacylation Assay—
The aminoacylation activities of the TARS constructs were determined using modifications to established procedures (Francklyn et al 2008). Briefly, reaction mixtures consisted of 20 mM Tris-HCl pH 8.0, 100 mM KCl, 10 mM MgCl2, 1 mM dithiothreitol, 2 mM ATP, 2.5 U pyrophosphatase (Roche), 80 μM threonine, 20 μM [14C]-threonine, and 5 μM of E. coli or human tRNAThr. Reactions were initiated with the addition of 0.25-0.75 μM TARS and run at 37° C. Aliquots were taken at varying time points and spotted onto Whatmann 3MM paper filters pre-soaked in 5% trichloroacetic acid (TCA). Upon completion, the filters were washed 3 times in excess TCA, once in 95% ethanol, and dried under a heating lamp. The formation of Thr-tRNAThr was detected by scintillation counter and the activity determined by linear regression of threonyl-tRNAThr formed per active site per unit time.

In data set [4] the test system is von Hippel Lindau protein (VHL). Nature of the data set: Co-immunoprecipitation of TARS and VHL from transfected HEK293 cells. The class given is binding, human. The settings on record: biotinylated TARS construct precipitated with streptavidin beads, HEK cells. As for the experimental part: Plasmids expressing biotinylatable TARS (pTARS) and myc-tagged VHL (pVHL) were transfected into HEK293 cells, and then extracts were prepared. Biotin-TARS was precipitated using streptavidin-coupled beads. Myc-VHL was precipitated using anti-myc antibodies. Precipitates were separated by SDS-PAGE, transferred and blots probed with anti-TARS antibody or anti-myc (VHL) antibody.
Sequence of von Hippel Lindau protein (VHL) (P40337 54-213 limits assumed): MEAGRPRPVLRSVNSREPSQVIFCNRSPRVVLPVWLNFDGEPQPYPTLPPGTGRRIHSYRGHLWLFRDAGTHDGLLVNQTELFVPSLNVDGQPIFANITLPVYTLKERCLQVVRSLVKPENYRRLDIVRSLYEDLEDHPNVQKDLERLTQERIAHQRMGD

By Ki is commonly meant the dissociation constant of the complex between target and ligand, obtained from inhibition or displacement. With `C[C@@H]1C[C@H](C)C[C@H](C)[C@@H](O)CC(=O)O[C@H]([C@@H]2CC[C@H]2C(=O)O)C/C=C/C=C(/C#N)[C@H](O)[C@@H](C)C1` [BC194], the “stimulation of unfolded protein response (phospho-eIF2α) and apoptosis (cleaved caspase-3)” value in the data set with HUVECs [1] is given as “high concentrations of BC194 are required”. Besides, the cell viability result in the data set with HUVECs [2] is recorded as “unaffected; also recorded: lack of effect”. Further, in the data set on HUVEC, the nascent protein synthesis entry was “unaffected; also recorded: lack of effect”. For the same molecule, on TARS, the inhibitory constant (Ki) was 4.1 nM.

B1: TARS: N-terminal His6-tagged human threonyl-tRNA synthetase expressed and purified from E. coli; SEQ ID NO:2 (protein, listed as Homo sapiens)
chain: MFEEKASSPSGKMGGEEKPIGAGEEKQKEGGKKKNKEGSGDGGRAELNPWPEYIYTRLEMYNILKAEHDSILAEKAEKDSKPIKVTLPDGKQVDAESWKTTPYQIACGISQGLADNTVIAKVNNVVWDLDRPLEEDCTLELLKFEDEEAQAVYWHSSAHIMGEAMERVYGGCLCYGPPIENGFYYDMYLEEGGVSSNDFSSLEALCKKIIKEKQAFERLEVKKETLLAMFKYNKFKCRILNEKVNTPTTTVYRCGPLIDLCRGPHVRHTGKIKALKIHKNSSTYWEGKADMETLQRIYGISFPDPKMLKEWEKFQEEAKNRDHRKIGRDQELYFFHELSPGSCFFLPKGAYIYNALIEFIRSEYRKRGFQEVVTPNIFNSRLWMTSGHWQHYSENMFSFEVEKELFALKPMNCPGHCLMFDHRPRSWRELPLRLADFGVLHRNELSGALTGLTRVRRFQQDDAHIFCAMEQIEDEIKGCLDFLRTVYSVFGFSFKLNLSTRPEKFLGDIEVWDQAEKQLENSLNEFGEKWELNSGDGAFYGPKIDIQIKDAIGRYHQCATIQLDFQLPIRFNLTYVSHDGDDKKRPVIVHRAILGSVERMIAILTENYGGKWPFWLSPRQVMVVPVGPTCDEYAQKVRQQFHDAKFMADIDLDPGCTLNKKIRNAQLAQYNFILVVGEKEKISGTVNIRTRDNKVHGERTISETIERLQQLKEFRSKQAEEEF
modifications: N-terminal His6 tag
In the case of B1, the “secretion of VEGF” value in the data set on HUVECs [3] is “did not induce secretion of VEGF; also recorded: does not induce VEGF secretion”. Besides, the aminoacylation activity result in the data set with tRNAThr was “exhibits aminoacyl synthetase activity”. For the same molecule, the “co-precipitation of VHL” value in data set [4] is on record as “the VHL protein is co-precipitated”.
